Experimental data from ChEMBL document CHEMBL1201862, “PubChem BioAssay data set” (2004).
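Results reflect a 48-hour exposure of cells in 96-well plates to compound at five concentrations. GI50 is the concentration that inhibits growth by half.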 Active and inactive are the calls of the source. No stated cut-off is given here; in the data, active = GI50 up to about 1.1 µM and inactive = higher.

Tests used:
Experiment in all cases: NCI anticancer screen, dose series, 48 h
COLO 205 = tested on: COLO 205
HCC 2998 = tested on: HCC 2998
HOP-62 = tested on: HOP-62
KM12 = tested on: KM12
LOX IMVI = tested on: LOX IMVI
NCI/ADR-RES = tested on: NCI/ADR-RES
OVCAR-3 = tested on: OVCAR-3
OVCAR-5 = tested on: OVCAR-5
OVCAR-8 = tested on: OVCAR-8
PC-3 = tested on: PC-3
RPMI-8226 = tested on: RPMI-8226
RXF 393 = tested on: RXF 393
SF-539 = tested on: SF-539
SK-OV-3 = tested on: SK-OV-3
SNB-75 = tested on: SNB-75
TK-10 = tested on: TK-10
U-251 = tested on: U-251
UO-31 = tested on: UO-31
HL-60 = tested on: HL-60
HT-29 = tested on: HT-29

| SMILES | GI50 (COLO 205) | GI50 (HCC 2998) | GI50 (HOP-62) | GI50 (KM12) | GI50 (LOX IMVI) | GI50 (NCI/ADR-RES) | GI50 (OVCAR-3) | GI50 (OVCAR-5) | GI50 (OVCAR-8) | GI50 (PC-3) | GI50 (RPMI-8226) | GI50 (RXF 393) | GI50 (SF-539) | GI50 (SK-OV-3) | GI50 (SNB-75) | GI50 (TK-10) | GI50 (U-251) | GI50 (UO-31) | GI50 (HL-60) | GI50 (HT-29) |
| --- | --- | --- | --- | --- | --- | --- | --- | --- | --- | --- | --- | --- | --- | --- | --- | --- | --- | --- | --- | --- |
| CCCCC(=O)Nc1ccc2cc(C(=O)OC)c(=O)[nH]c2n1 | > 100 µM (inactive) | > 100 µM (inactive) | > 100 µM (inactive) | > 100 µM (inactive) | > 100 µM (inactive) | > 100 µM (inactive) | > 100 µM (inactive) | > 100 µM (inactive) | > 100 µM (inactive) | > 100 µM (inactive) | > 100 µM (inactive) | > 100 µM (inactive) | > 100 µM (inactive) | > 100 µM (inactive) | > 100 µM (inactive) | > 100 µM (inactive) | > 100 µM (inactive) | > 100 µM (inactive) | – | – |
| O=c1ccn(Cc2ccccc2CCl)c(=O)[nH]1 | 27.2 µM (inactive) | 22.7 µM (inactive) | 25.7 µM (inactive) | 26.5 µM (inactive) | – | 22.1 µM (inactive) | 22.3 µM (inactive) | 21.5 µM (inactive) | 25.9 µM (inactive) | 31.8 µM (inactive) | – | 24 µM (inactive) | 24 µM (inactive) | 46.5 µM (inactive) | 45.2 µM (inactive) | 39.1 µM (inactive) | 29.7 µM (inactive) | 29.3 µM (inactive) | 37.2 µM (inactive) | 24.2 µM (inactive) |
| CC[C@@]1(O)C(=O)OCc2c1cc1n(c2=O)Cc2c-1nc1ccccc1c2/C=N\NC(=O)C(N)CO (stereo partly drawn) | 32.1 µM (inactive) | 12.1 µM (inactive) | 0.201 µM (active) | 5.92 µM (inactive) | 0.329 µM (active) | 0.785 µM (active) | 16.2 µM (inactive) | 13.4 µM (inactive) | 0.596 µM (active) | 2.2 µM (inactive) | 1.13 µM (inactive) | 1.14 µM (inactive) | 0.138 µM (active) | 2.36 µM (inactive) | – | > 60.7 µM (inactive) | 0.232 µM (active) | 0.667 µM (active) | 0.335 µM (active) | 2.86 µM (inactive) |
| CC(C)=NN/C=N\C(C#N)=C(/N)C#N | > 100 µM (inactive) | 0.262 µM (active) | > 100 µM (inactive) | – | – | > 100 µM (inactive) | > 100 µM (inactive) | > 100 µM (inactive) | > 100 µM (inactive) | > 100 µM (inactive) | > 100 µM (inactive) | > 100 µM (inactive) | > 100 µM (inactive) | > 100 µM (inactive) | 0.466 µM (active) | > 100 µM (inactive) | > 100 µM (inactive) | > 100 µM (inactive) | > 100 µM (inactive) | > 100 µM (inactive) |
| CC1(C)OC2C(CO)OC(n3ccc(N)nc3=O)C2O1 (stereo not drawn) | > 100 µM (inactive) | > 100 µM (inactive) | > 100 µM (inactive) | > 100 µM (inactive) | > 100 µM (inactive) | > 100 µM (inactive) | > 100 µM (inactive) | > 100 µM (inactive) | > 100 µM (inactive) | > 100 µM (inactive) | > 100 µM (inactive) | > 100 µM (inactive) | > 100 µM (inactive) | > 100 µM (inactive) | – | > 100 µM (inactive) | > 100 µM (inactive) | > 100 µM (inactive) | > 100 µM (inactive) | – |
| CCOC(=O)C1CSCCSC1 | > 100 µM (inactive) | 25.5 µM (inactive) | – | > 100 µM (inactive) | > 100 µM (inactive) | > 100 µM (inactive) | – | – | > 100 µM (inactive) | > 100 µM (inactive) | – | > 100 µM (inactive) | – | > 100 µM (inactive) | 43 µM (inactive) | > 100 µM (inactive) | > 100 µM (inactive) | > 100 µM (inactive) | – | > 100 µM (inactive) |
| CCOP(=O)(OCC)C(NC(=O)OCC(Cl)(Cl)Cl)n1nnc(C(=O)OC)c1C(=O)OC (stereo not drawn) | > 100 µM (inactive) | > 100 µM (inactive) | > 100 µM (inactive) | > 100 µM (inactive) | > 100 µM (inactive) | > 100 µM (inactive) | > 100 µM (inactive) | – | > 100 µM (inactive) | 77.8 µM (inactive) | > 100 µM (inactive) | > 100 µM (inactive) | > 100 µM (inactive) | > 100 µM (inactive) | > 100 µM (inactive) | > 100 µM (inactive) | > 100 µM (inactive) | > 100 µM (inactive) | > 100 µM (inactive) | > 100 µM (inactive) |
| CSc1ccc(/C=C2\N=C(c3ccccc3)N(/N=C3\C(=O)Nc4ccccc43)C2=O)cc1 | > 100 µM (inactive) | > 100 µM (inactive) | > 100 µM (inactive) | > 100 µM (inactive) | > 100 µM (inactive) | > 100 µM (inactive) | 83.6 µM (inactive) | > 100 µM (inactive) | 88.3 µM (inactive) | > 100 µM (inactive) | – | > 100 µM (inactive) | > 100 µM (inactive) | > 100 µM (inactive) | > 100 µM (inactive) | > 100 µM (inactive) | > 100 µM (inactive) | > 100 µM (inactive) | > 100 µM (inactive) | > 100 µM (inactive) |
| CC(=O)c1c(SCCN2CCCCCC2)n(-c2ccccc2)c(=S)n(-c2ccccc2)c1=O | 2.03 µM (inactive) | 4.3 µM (inactive) | 19.5 µM (inactive) | 18.6 µM (inactive) | 3.16 µM (inactive) | 34.5 µM (inactive) | 3.13 µM (inactive) | 24.4 µM (inactive) | 10.7 µM (inactive) | 5.26 µM (inactive) | 0.384 µM (active) | 1.73 µM (inactive) | 6 µM (inactive) | 48.3 µM (inactive) | 13.8 µM (inactive) | 2.07 µM (inactive) | 15.9 µM (inactive) | – | 0.019 µM (active) | 7.4 µM (inactive) |
| COc1ccc(OC)c(C(=O)c2cccc(C(=O)c3cc(OC)ccc3OC)n2)c1 | 32.1 µM (inactive) | 46.9 µM (inactive) | 37.1 µM (inactive) | 33.9 µM (inactive) | 25.5 µM (inactive) | 29 µM (inactive) | – | 30.5 µM (inactive) | 50.1 µM (inactive) | 33.6 µM (inactive) | – | 5.12 µM (inactive) | 28.6 µM (inactive) | 46.1 µM (inactive) | 19.9 µM (inactive) | 35.5 µM (inactive) | 27.4 µM (inactive) | 17.9 µM (inactive) | 18.5 µM (inactive) | 35.7 µM (inactive) |
| N#C/C(=C\c1ccc(F)cc1)c1nc(-c2cc3ccccc3oc2=O)cs1 | > 100 µM (inactive) | 37.7 µM (inactive) | 8.28 µM (inactive) | 59 µM (inactive) | 87.7 µM (inactive) | 30.9 µM (inactive) | – | > 100 µM (inactive) | 21.3 µM (inactive) | 31.7 µM (inactive) | 87.9 µM (inactive) | 18.6 µM (inactive) | 18 µM (inactive) | 20.4 µM (inactive) | 7.01 µM (inactive) | 16.4 µM (inactive) | 14.6 µM (inactive) | 26.9 µM (inactive) | > 100 µM (inactive) | 40.1 µM (inactive) |
| NC(Cc1ncccn1)C(=O)O (stereo not drawn) | > 100 µM (inactive) | > 100 µM (inactive) | > 100 µM (inactive) | > 100 µM (inactive) | > 100 µM (inactive) | > 100 µM (inactive) | > 100 µM (inactive) | > 100 µM (inactive) | > 100 µM (inactive) | > 100 µM (inactive) | > 100 µM (inactive) | > 100 µM (inactive) | > 100 µM (inactive) | > 100 µM (inactive) | > 100 µM (inactive) | > 100 µM (inactive) | > 100 µM (inactive) | > 100 µM (inactive) | – | > 100 µM (inactive) |
| CCCCCc1c(CCCC)c(O)nc2nc(NC(=O)CCCC)ccc12 | > 100 µM (inactive) | > 100 µM (inactive) | > 100 µM (inactive) | > 100 µM (inactive) | > 100 µM (inactive) | > 100 µM (inactive) | > 100 µM (inactive) | > 100 µM (inactive) | > 100 µM (inactive) | > 100 µM (inactive) | > 100 µM (inactive) | > 100 µM (inactive) | > 100 µM (inactive) | > 100 µM (inactive) | > 100 µM (inactive) | > 100 µM (inactive) | > 100 µM (inactive) | > 100 µM (inactive) | – | – |
| CCOP(=O)(OCC)C(Cc1ccc(Cl)cc1)NS(=O)(=O)c1ccc(C)cc1 (stereo not drawn) | > 100 µM (inactive) | > 100 µM (inactive) | > 100 µM (inactive) | > 100 µM (inactive) | > 100 µM (inactive) | > 100 µM (inactive) | > 100 µM (inactive) | > 100 µM (inactive) | > 100 µM (inactive) | > 100 µM (inactive) | 98.9 µM (inactive) | > 100 µM (inactive) | > 100 µM (inactive) | > 100 µM (inactive) | – | > 100 µM (inactive) | > 100 µM (inactive) | – | > 100 µM (inactive) | > 100 µM (inactive) |
| O=C(O)C(F)(F)C(F)(F)C(F)(F)C(F)(F)C(=O)O | > 100 µM (inactive) | > 100 µM (inactive) | > 100 µM (inactive) | > 100 µM (inactive) | > 100 µM (inactive) | > 100 µM (inactive) | > 100 µM (inactive) | > 100 µM (inactive) | > 100 µM (inactive) | > 100 µM (inactive) | > 100 µM (inactive) | > 100 µM (inactive) | – | > 100 µM (inactive) | > 100 µM (inactive) | > 100 µM (inactive) | > 100 µM (inactive) | > 100 µM (inactive) | > 100 µM (inactive) | > 100 µM (inactive) |
